Results taken from BindingDB's records for doi:10.1016/S0960-894X(97)00368-5 (1997).

These molecules were tested against Human cytomegalovirus protease (assemblin) (assay: Inhibitory concentration against human cytomegalovirus protease variant expressing a beta galactosidase reporter gene).
Work on `Cc1c(NC(=O)CN(C)C)ccc2nc(N[C@H](C)c3ccccc3)oc(=O)c12` [2-Dimethylamino-N-[5-methyl-4-oxo-2-(1-phenyl-ethylamino)-4H-benzo[d][1,3]oxazin-6-yl]-acetamide] yielded an IC50 of 2.2 µM. Work on `Cc1cccc2nc(NC(C)C)oc(=O)c12` [2-Isopropylamino-5-methyl-benzo[d][1,3]oxazin-4-one] yielded an IC50 of 4 µM. `Cc1cccc2nc(N[C@H](C)c3ccc(Br)cc3)oc(=O)c12` [2-[1-(4-Bromo-phenyl)-ethylamino]-5-methyl-benzo[d][1,3]oxazin-4-one] was tested, and the IC50 was 0.46 µM. For `Cc1c(NC(=O)c2ccccn2)ccc2nc(N[C@H](C)c3ccccc3)oc(=O)c12` [Pyridine-2-carboxylic acid [5-methyl-4-oxo-2-(1-phenyl-ethylamino)-4H-benzo[d][1,3]oxazin-6-yl]-amide], the IC50 was 0.72 µM. `Cc1c(NC(=O)OC(C)(C)C)ccc2nc(N[C@H](C)c3ccccc3)oc(=O)c12` [[5-Methyl-4-oxo-2-(1-phenyl-ethylamino)-4H-benzo[d][1,3]oxazin-6-yl]-carbamic acid tert-butyl ester] showed an IC50 of 1.3 µM.
